Experimental findings from patent publication US11970466B1, “4-((5-(3-fluorophenyl)-4-phenyl-4H-1,2,4-triazol-3-ylthio)methyl)benzoic acid as an antimicrobial compound” (KING FAISAL UNIVERSITY, priority 2023, dated 2024) are described below.

Type in all cases: cell-based
For one experiment, the system named is Bacillus Cereus. Nature of the experiment: Agar plate disc-diffusion, antibacterial inhibition zone. The conditions noted are these: Bacillus Cereus (Gram positive), nutrient agar, 37° C., 48 hours. How it is done:
(§1) The agar plate disc-diffusion method was applied. […] The discs were then placed onto the surface of agar plates (nutrient agar for bacteria and Sabouraud's dextrose agar for fungi) seeded with the test organism. Each plate contained 15 mL of the agar medium, previously seeded with 0.2 mL of the broth culture of each organism pregrown for 18 hours. The plates were incubated at 37° C. for 48 hours, and 72 hours for fungi. The inhibition zones were measured in mm. Discs impregnated with DMSO were used as a control, and its inhibition zone was subtracted from the tested compound actual inhibition zone.
A general note: Agar diffusion results depend on both activity and mobility in agar.

For a further experiment, the system named is Pseudomonas aeruginosa. Described as above. The conditions noted are these: Pseudomonas aeruginosa (Gram negative), nutrient agar, 37° C., 48 hours. On the procedure:
as §1

The test system of a further experiment is Staphylococcus aureus. The experiment is described as above. The conditions noted are these: Staphylococcus aureus (Gram positive), nutrient agar, 37° C., 48 hours. On the procedure:
as §1

The subject of a further experiment is Escherichia coli. The experiment is described as above. As to conditions: Escherichia coli (Gram negative), nutrient agar, 37° C., 48 hours. On the procedure: (§2) The agar plate disc-diffusion method was applied. Sterilized filter papers (6 mm in diameter) were wetted with 10 μL of a solution of 4-((5-(3-fluorophenyl)-4-phenyl-4H-1,2,4-triazol-3-ylthio)methyl)benzoic acid (III) to be tested, containing 10 mg/mL in DMSO, and the discs were allowed to air dry. The discs were then placed onto the surface of agar plates (nutrient agar for bacteria and Sabouraud's dextrose agar for fungi) seeded with the test organism. Each plate contained 15 mL of the agar medium, previously seeded with 0.2 mL of the broth culture of each organism pregrown for 18 hours. The plates were incubated at 37° C. for 48 hours, and 72 hours for fungi. The inhibition zones were measured in mm. Discs impregnated with DMSO were used as a control, and its inhibition zone was subtracted from the tested compound actual inhibition zone.

The subject of the next experiment is Aspergillus flavus. The experiment can be described thus: Agar plate disc-diffusion, antifungal inhibition zone. The conditions noted are these: Sabouraud's dextrose agar, 72 hours. On the procedure: as §1
The subject of experiment [1] is Chrysosporium keratinophilum. The experiment is described as above. As to conditions: Sabouraud's dextrose agar, 72 hours. How it is done: as §2
The mark [2] stands for this setting: A = concentration of comp. = 10,000 μL.
Where [3] appears, read: B = concentration of comp. = 30,000 μL.
[4] abbreviates: C = concentration of comp. = 50,000 μL.

Regarding `O=C(O)c1cn(C2CC2)c2cc(N3CCNCC3)c(F)cc2c1=O` [Cip., ciprofloxacin], the inhibition zone turned out to be 29 mm with Bacillus Cereus (setting [2]); 30 mm in the experiment on Bacillus Cereus (setting [3]); 42 mm with Bacillus Cereus (setting [4]); 29 mm in the experiment on Pseudomonas aeruginosa (setting [2]); 30 mm in the experiment on Pseudomonas aeruginosa (setting [3]); 53 mm in the experiment on Pseudomonas aeruginosa (setting [4]). Besides, the inhibition zone is reported as 43 mm in the experiment with Staphylococcus aureus (setting [2]); 44 mm in the experiment on Staphylococcus aureus (setting [3]); 53 mm in the experiment with Staphylococcus aureus (setting [4]); 30 mm with Escherichia coli (setting [2]); 39 mm in the experiment on Escherichia coli (setting [3]); 60 mm in the experiment with Escherichia coli (setting [4]). Further, the inhibition zone in the experiment with Aspergillus flavus (setting [2]) is 29 mm; with Aspergillus flavus (setting [3]) it was 30 mm; in the experiment with Aspergillus flavus (setting [4]) it was 42 mm; in experiment [1] (setting [2]), 29 mm; in experiment [1] (setting [3]), 30 mm; in experiment [1] (setting [4]), 53 mm.

In the case of `O=C(O)c1ccc(CSc2nnc(-c3cccc(F)c3)n2-c2ccccc2)cc1` [III, 4-((5-(3-fluorophenyl)-4-phenyl-4H-1,2,4-triazol-3-ylthio)methyl)benzoic acid], the inhibition zone in the experiment on Bacillus Cereus (setting [2]) is recorded as 26 mm; with Bacillus Cereus (setting [3]) it was 28 mm; in the experiment with Bacillus Cereus (setting [4]) it was 40 mm; in the experiment on Pseudomonas aeruginosa (setting [2]), 22 mm; in the experiment with Pseudomonas aeruginosa (setting [3]) it was 26 mm; with Pseudomonas aeruginosa (setting [4]) it was 37 mm. Further, the inhibition zone was determined as 19 mm in the experiment with Staphylococcus aureus (setting [2]); 25 mm in the experiment on Staphylococcus aureus (setting [3]); 35 mm in the experiment with Staphylococcus aureus (setting [4]); 28 mm in the experiment on Escherichia coli (setting [2]); 36 mm with Escherichia coli (setting [3]); 50 mm in the experiment on Escherichia coli (setting [4]). For the same compound, the inhibition zone is listed as 24 mm in the experiment with Aspergillus flavus (setting [2]); 26 mm in the experiment on Aspergillus flavus (setting [3]); 35 mm in the experiment on Aspergillus flavus (setting [4]); 23 mm in experiment [1] (setting [2]); 27 mm in experiment [1] (setting [3]); 41 mm in experiment [1] (setting [4]).
